From US6815414B2, “Pharmaceutical compositions for the treatment of helicobacter pylori-associated disorders” (Vecta Ltd., priority 1998, dated 2004)
“Also recorded” adds a separate entry of the source. No end group written: not given here.

Columns and labels:
[1] = tested on: H. pylori; assay: H. pylori growth kinetics in liquid media (optical density); assay type: cell-based, Helicobacter pylori; settings: peptide added to liquid media at increasing concentrations, microaerophilic, up to 48 h
[2] = tested on: H. pylori; assay: Cold inhibition assay: competition on 125I-labeled gastrin uptake by H. pylori; assay type: binding, Helicobacter pylori; settings: 500 nmol/l 125I-labeled gastrin, increasing concentrations of unlabeled peptide, 45 min, 37° C.
Description: Bacteria were incubated in the presence of 500 nmo/l ^125I-labeled gastrin and increasing concentrations of either unlabeled gastrin (G), CCK-8 (CCK), pentagastrin (Pen), somatostatin (Som) or EGF for 45 min. Bacteria were washed and radioactivity remaining in bacterial pellets was determined. One experiment representative of three.
For the cold inhibition assay, bacterial pellets were resuspended in 200 μl Brucella broth containing 500 nmol/l ^125I-labeled gastrin. Unlabeled gastrin in increasing concentrations (1250-5000 nmol/l) was added concurrently. Bacteria were incubated for 45 minutes at 37° C., after which they were extensively washed with PBS. Incorporation of ^125I-labeled gastrin was determined using a gamma counter. As controls, bacteria were incubated with ^125I-labeled gastrin (500 nmol/l) in the presence of CCK-8, pentagastrin, somatostatin or EGF at the indicated concentrations.

[3] = tested on: control bacteria (E. coli, S. pneumonia, C. jejuni); assay: Radioactive gastrin uptake by control bacteria; assay type: cell-based; settings: 500 nmol/l, 45 min, 4° C. or 37° C.; autoradiography
Description: (§1) H. pylori (H.P.), E. coli (E.C.), S. pneumonia (S.P.) and C. jejuni (C.J.) bacteria were incubated for 45 minutes with ^125I-labeled gastrin. Incubation was at 4° C. or 37° C. Following initial incubation, proteinase K (P.K) was added for 30 minutes, after which bacteria were washed and blotted. One experiment representative of two.
(§2) To assess labeled gastrin uptake, bacterial pellets were resuspended in 200 μl Brucella broth containing 500 nmol/l ^125I-labeled gastrin (IncStar Pharmatrade). Incubation was at either 4° C. or 37° C. for 45 minutes. Bacteria were washed three times in PBS, resuspended and incubated for 30 minutes in Brucella broth containing proteinase K (Promega) at a concentration of 25 ng/ml. Subsequently, bacteria were washed, resuspended in 100 μl PBS, out of which 10 μl were blotted on nitrocellulose filters and autoradiography performed for 7 days. Incorporated ^125I was quantitated using a gamma counter.

[4] = tested on: H. pylori; assay: Radioactive gastrin uptake by H. pylori; assay type: cell-based, Helicobacter pylori
Description: as §1, §2

Compound | effect on H. pylori growth (growth curve, OD) [1] | inhibition of labeled gastrin uptake by H. pylori [2] | labeling of control bacteria by labeled gastrin [3] | uptake (incorporation) of labeled gastrin by H. pylori ([4]; 500 nmol/l, 45 min, 37° C. (not at 4° C.), autoradiography) | radioactive counts incorporated by H. pylori before proteinase K incubation ([4]; before proteinase K incubation) | radioactive counts incorporated by H. pylori following incubation with proteinase K ([4]; following 30 min incubation with proteinase K)
C[C@H](N)C(=O)NCC(=O)N[C@H]1CSSC[C@@H](C(=O)O)NC(=O)[C@H](CO)NC(=O)[C@H]([C@@H](C)O)NC(=O)[C@H](Cc2ccccc2)NC(=O)[C@H]([C@@H](C)O)NC(=O)[C@H](CCCCN)NC(=O)[C@H](Cc2c[nH]c3ccccc23)NC(=O)[C@H](Cc2ccccc2)NC(=O)[C@H](Cc2ccccc2)NC(=O)[C@H](CC(N)=O)NC(=O)[C@H](CCCCN)NC1=O [somatostatin, somatostatin 14] | none of the peptides had an effect | no inhibition |  |  |  | 
^125I-labeled gastrin: 125I-labeled gastrin (IncStar Pharmatrade) used as radioligand for uptake |  |  | no labeling | only H. pylori incubated at 37 °C incorporated | 311 CPM | 385 CPM
cholecystokinin (CCK)-8 (fragment 26-33) (DYMGWMDF-NH2; ends and bridges not checked; UniProt P06307 96-103, looked up) [CCK-8, gastrin/CCKB receptor agonist peptide comprising Trp-Met-Asp-PheNH2] | did not stimulate bacterial growth; also recorded: none of the peptides had an effect | competed with gastrin on the binding to H. pylori; also recorded: inhibited labeled gastrin uptake in a dose-dependent manner |  |  |  | 
epidermal growth factor (EGF) (NSDSECPLSHDGYCLHDGVCMYIEALDKYACNCVVGYIGERCQYRDLKWWELR; Epidermal growth factor; UniProt P01133 971-1023, looked up) [growth factor peptide found within the gastric lumen, control peptide] | none of the peptides had an effect | no inhibition |  |  |  | 
